Laboratory results from article PMC10206040, “Identification of novel anti-amoebic pharmacophores from kinase inhibitor chemotypes” (Frontiers in Microbiology, 2023).
Read-outs that look alike come from different tables or passages of the source.

Experiments:
[1] = system: Acanthamoeba castellanii T4 isolate (ATCC 50370) trophozoites; test: CellTiter-Glo 2.0 trophocidal assay, A. castellanii; type: cell-based; settings: Acanthamoeba castellanii, ATCC50370, 72 h, read-out: Acanthamoeba castellanii EC50 ± SD
Description: This isolate was purchased from American Type Culture Collection (ATCC). […] For sub-culturing, cells were mechanically harvested to detach the cells from the culture flasks.

[2] = system: Naegleria fowleri (ATCC 30215) trophozoites; test: microbe, parasite or virus in culture
Experimental: Trophozoites were routinely grown axenically at 34°C, 5% CO2, in Nelson’s complete medium (NCM) in non-vented 75 cm^2 tissue culture flasks (Olympus), until the cells were 80–90% confluent. For sub-culturing, cells were placed on ice to detach the cells from the culture flasks. […] Complete NCM media is prepared by the addition of 10% fetal bovine serum (FBS) and 100 U/mL penicillin, and 100 μg/mL streptomycin antibiotics.
Trophozoites were routinely cultured as described above and only logarithmic trophozoites were used.
All assays were incubated at each of the parasites’ representative growth temperatures, described above, for 72 h. At the 72-h time point, 25 μL of CellTiter-Glo 2.0 reagent was added to all wells of the 96-well plates by hand. The plates were protected from light and contents were mixed using an orbital shaker at 300 rpm at room temperature for 2 min to induce cell lysis. After shaking, the plates were equilibrated at room temperature for 10 min to stabilize the luminescent signal. The ATP luminescent signal (relative light units; RLUs) were measured […] with a SpectraMax I3X plate reader (Molecular Devices, Sunnyvale, CA, United States). […] Values reported are from a minimum of three biological replicates with standard deviation.

[3] = system: Balamuthia mandrillaris (CDC:V039; ATCC 50209) trophozoites; test: CellTiter-Glo 2.0 trophocidal assay, B. mandrillaris; type: cell-based
Description: For sub-culturing, 0.25% Trypsin–EDTA (Gibco) cell detachment reagent was used to detach the cells from the culture flasks.

MRC5 cells = test: Human fetal lung fibroblast (MRC5) cell cytotoxicity assay (resazurin); settings: Table S2
Experimental: Intermediate plates were made as described, adding 95 μL of DMEM complete media to 5 μL of compound per well setting a 5% DMSO amount. Log-phase MRC5 cells were removed from a T-75 TC flask using TrypLE® Express (Thermo®) and dispersed by gentle pipetting. Cell density was adjusted to working concentration in prewarmed DMEM medium: 25,000 cells in 90 μL of culture were plated in 96-well transparent Nunclon plates and allowed to settle for 24 h at 37°C and 5% CO2. […] Plates were incubated for 48 h at 37°C and 5% CO2. At 4 h prior to fluorescence measurement, 20 μL of 500 μM resazurin solution was added.
A four-parameter equation was used to fit the dose–response curves and determination of EC50 by SigmaPlot ® 13.0 software. Assays were performed in duplicate at least twice for positive compounds, to achieve a minimal […] per dose response.

[4] = logarithmic trophozoites, 72 h, n = 3
[5] = Naegleria fowleri, ATCC30215, 72 h, read-out: Naegleria fowleri EC50 ± SD, logarithmic trophozoites, 72 h, n = 3 (converted)
[6] = Balamuthia mandrillaris, ATCC50209, 72 h, logarithmic trophozoites, 72 h, n = 3, read-out: Balamuthia mandrillaris EC50 ± SD
[7] = Balamuthia mandrillaris, ATCC50209, 72 h, read-out: Balamuthia mandrillaris EC50 ± SD, logarithmic trophozoites, 72 h, n = 3 (converted)
[8] = Naegleria fowleri, 72 h, read-out: Naegleria fowleri EC50 ± SD, logarithmic trophozoites, 72 h, n = 3 (converted)
[9] = Balamuthia mandrillaris, ATCC50209, 72 h, read-out: Balamuthia mandrillaris EC50 ± SD

| EC50 [2, 5] | Compound | EC50 [3, 6] | EC50 [3, 7] | EC50 [2, 8] | other results |
| --- | --- | --- | --- | --- | --- |
| 0.02 ± 0.01 µM | CC[C@H]1OC(=O)[C@H](C)[C@@H](O[C@H]2C[C@@](C)(OC)[C@@H](O)[C@H](C)O2)[C@H](C)[C@@H](O[C@@H]2O[C@H](C)C[C@H](N(C)C)[C@H]2O)[C@](C)(O)C[C@@H](C)CN(C)[C@H](C)[C@@H](O)[C@]1(C)O [Azithromycin, reference compound] | > 20 µM |  |  | EC50 [1, 4]: 0.26 ± 0.14 µM |
| 5.8 ± 0.22 µM | [H]/N=C(\N/C(=N/[H])NCCCCCCNC(=N)NC(=N)Nc1ccc(Cl)cc1)Nc1ccc(Cl)cc1 [Chlorhexidine, reference compound] | 1.6 ± 0.17 µM |  |  | EC50 [1, 4]: 11 ± 3.5 µM |
|  | Nc1cc(-c2cc3c4c(n[nH]c4c2)Nc2ccccc2O3)ncn1 [Compound 1b] | 1.8 ± 0.46 µM |  |  | EC50 [1, 4]: 12 ± 8.2 µM |
| 13 ± 6.7 µM | COc1ccn2c(Nc3ccccc3F)c(-c3cnn(C)c3)nc2c1 [Compound 3b, N-(2-Fluorophenyl)-7-methoxy-2-(1-methyl-1H-pyrazol-4-yl)imidazo[1,2-a]pyridin-3-amine] |  |  |  | MRC5 TC50 ± Standard Deviation (MRC5 cells): 64 µM |
| > 20 µM | Brc1ccc2nc(-c3ccccn3)c(Nc3ccc4c(c3)OCO4)n2c1 [Compound 3e] |  |  |  | EC50 [1, 4]: > 20 µM |
| > 20 µM | CC(C)Nc1c(-c2ccccn2)nc2cc(C(F)(F)F)ccn12 [Compound 3f, N-(Propan-2-yl)-2-(pyridin-2-yl)-7-(trifluoromethyl)imidazo[1,2-a]pyridin-3-amine] |  |  |  | MRC5 TC50 ± Standard Deviation (MRC5 cells): 53 µM |
| ≤ 14 µM | Cn1cc(-c2cnc3[nH]cc(-c4cccnc4)c3c2)cn1 [Compound 4d] |  |  |  | EC50 ([2]; read-out: Naegleria fowleri EC50 ± SD, logarithmic trophozoites, 72 h, n = 3): 8.4 ± 0.71 µM |
| > 20 µM | N#Cc1cccc(-c2c[nH]c3ncc(-c4ccncc4)cc23)c1 [Compound 4f] |  |  |  |  |
|  | Cn1cc(-c2ccnc3[nH]c(-c4ccc(C5CCCN5)cc4)cc23)cn1 (stereo not shown) [Compound 5b] |  | 7.25 ± 0.7 µM |  |  |
|  | Cn1cc(-c2ccnc3[nH]c(-c4ccc(C(N)=O)cc4)cc23)cn1 [Compound 5e] |  | 1.8 ± 0.24 µM |  |  |
| 11 ± 0.6 µM | FC(F)(F)CNc1nc(Nc2ccsc2)nc2[nH]cnc12 [Compound 6a] |  |  |  |  |
| 14 ± 5.7 µM | c1nc2c(N3CCC3)nc(Nc3ccsc3)nc2[nH]1 [Compound 6b] |  |  |  |  |
| > 20 µM | Cn1cc(Nc2nc(NCC(F)(F)F)c3ncn(C)c3n2)cn1 [Compound 6c] |  |  |  |  |
| > 20 µM | c1nc2c(NCCN3CCCC3)nc(Nc3ccsc3)nc2[nH]1 [Compound 6d] |  |  |  |  |
| 16 ± 4.1 µM | CN1CCN(c2ncc(-c3ccc4c(Nc5ccc(OCc6cccc(F)c6)c(Cl)c5)ccnc4c3)cn2)CC1 [Compound 7a] |  |  |  | lipophilic ligand efficiency (LLE) ([2]; N. fowleri, LLE calculated as pEC50-LogD7.4): 1.40 |
|  | CN1CC2(CCN(c3ncc(-c4ccc5c(Nc6cnccn6)ccnc5c4)cn3)C2)C1 [Compound 7b] | 1.4 ± 0.17 µM |  |  |  |
|  | CC(=O)c1ccc2c(c1)c1cc(C(C)=O)ccc1n2CCNC1CCCCC1 [Compound 8a] |  | 6.8 ± 0.1 µM |  |  |
| 8.8 ± 0.71 µM | CC(=O)c1cc2c3cc(C(C)=O)c(O)cc3n(CCNC(C)C)c2cc1O [Compound 8b] | 11 ± 0.35 µM |  |  |  |
|  | CC(=O)c1ccc2c(c1)c1cc(C(C)=O)ccc1n2CCN1CCCCC1 [Compound 8d] |  | 12 ± 0.26 µM | 4.3 ± 0.22 µM |  |
| 17 ± 0.65 µM | CC(=O)c1cc2c3cc(C(C)=O)c(O)cc3n(CCCN(C)C)c2cc1O [Compound 8e] |  |  |  |  |
| 17 ± 0.2 µM | CC(=O)c1ccc2c(c1)c1cc(C(C)=O)ccc1n2CCCN(C)C [Compound 8f] | 19 ± 1.1 µM |  |  |  |
|  | CC(=O)c1ccc2c(c1)c1cc(C(C)=O)ccc1n2CCNC1CCCCCC1 [Compound 8h] |  | 7.3 ± 0.38 µM |  |  |
|  | CC(=O)c1ccc2c(c1)c1cc(C(C)=O)ccc1n2CCN1CC(C)C1 [Compound 8i] |  | 7.3 ± 0.28 µM | 18 ± 0.45 µM |  |

| EC50 [2, 5] | Compound | EC50 [3, 6] | EC50 [3, 7] | EC50 [2, 8] | other results |
| --- | --- | --- | --- | --- | --- |
|  | CC(=O)c1ccc2c(c1)c1cc(C(C)=O)ccc1n2CCN1CCCOCC1 [Compound 8j] |  | 3.3 ± 0.24 µM | 10 ± 1.4 µM |  |
|  | CC(=O)c1ccc2c(c1)c1cc(C(C)=O)ccc1n2CCNC1CCCC1 [Compound 8k] |  | 7.4 ± 0.36 µM |  |  |
|  | CC(=O)c1ccc2c(c1)c1cc(C(C)=O)ccc1n2CCN1CCOC[C@H]1C [Compound 8l] |  | 12 µM |  | EC50 ([3]; read-out: Balamuthia mandrillaris EC50 ± SD, logarithmic trophozoites, 72 h, n = 3): 13 ± 0.35 µM |
|  | Cc1n[nH]c(Nc2cccc3c2CCO3)c1C [Compound S6, N-(2,3-Dihydrobenzofuran-4-yl)-3,4-dimethyl-1H-pyrazol-5-amine] |  | > 20 µM |  | EC50 [1]: > 20 µM |
|  | Cc1n[nH]c(Nc2cccc3c2CN(C)C3=O)c1C [Compound S8, 4-((3,4-Dimethyl-1H-pyrazol-5-yl)amino)-2-methylisoindolin-1-one] |  | > 20 µM |  | EC50 [1]: > 20 µM |
| > 20 µM | c1cnc(Nc2ccnc3cc(C4CCCNC4)ccc23)cn1 (stereo not shown) [Compound S18, 7-(Piperidin-3-yl)-N-(pyrazin-2-yl)quinolin-4-amine] | > 20 µM |  |  | EC50 [1, 4]: > 20 µM |
|  | c1nc2c(N3CCOCC3)nc(Nc3ccsc3)nc2[nH]1 [Compound S25] | > 20 µM |  | > 20 µM | EC50 [1, 4]: > 20 µM |
|  | CC(C)(C)c1ccc(Nc2nccc(-c3c(-c4ccc(C(F)(F)F)cc4)nn4ncccc34)n2)cc1 [Compound S26] |  |  | > 20 µM | EC50 [1]: > 20 µM; EC50 [3, 9]: > 20 µM |
|  | CC(C)(O)c1nn2ncccc2c1-c1ccnc(Nc2ccc(C(N)=O)cc2)n1 [Compound S27] |  |  | > 20 µM | EC50 [1]: > 20 µM; EC50 [3, 9]: > 20 µM |
|  | c1cnn2ncc(-c3ccncc3)c2c1 [Compound S28] |  |  | > 20 µM | EC50 [1]: > 20 µM; EC50 [3, 9]: > 20 µM |
|  | N#Cc1cccc(Nc2nccc(-c3c(CO)nn4nc(N5CCOCC5)ccc34)n2)c1 [Compound S29] |  |  | > 20 µM | EC50 [1]: > 20 µM; EC50 [3, 9]: > 20 µM |
|  | CN1CCCN(c2ncc(-c3ccc4c(Nc5cnccn5)ccnc4c3)cn2)CC1 [Compound S33] | > 20 µM |  | > 20 µM | EC50 [1, 4]: > 20 µM |
|  | CN1C[C@@H]2C[C@H]1CN2c1ncc(-c2ccc3c(Nc4cnccn4)ccnc3c2)cn1 [Compound S34] | > 20 µM |  | > 20 µM | EC50 [1, 4]: > 20 µM |
|  | CN1CCC2(CC1)CCN(c1ncc(-c3ccc4c(Nc5cnccn5)ccnc4c3)cn1)CC2 [Compound S35] | > 20 µM |  | > 20 µM | EC50 [1, 4]: > 20 µM |
|  | CN1C[C@H]2C[C@@H]1CN2c1ncc(-c2ccc3c(Nc4cnccn4)ccnc3c2)cn1 [Compound S36] | > 20 µM |  | > 20 µM | EC50 [1, 4]: > 20 µM |
|  | CC(=O)c1ccc2c(c1)c1cc(C(C)=O)ccc1n2-c1ccc(N(C)C)cc1 [Compound S37] | > 20 µM |  | > 20 µM | EC50 [1, 4]: > 20 µM |
|  | CC(=O)c1ccc2c(c1)c1cc(C(C)=O)ccc1n2CCN1CCNCC1 [Compound S38] |  | > 20 µM | > 20 µM | EC50 [1]: > 20 µM |
|  | CC(=O)c1ccc2c(c1)c1cc(C(C)=O)ccc1n2CCN1CC(F)C1 [Compound S39] |  | > 20 µM |  | EC50 [1]: > 20 µM |
|  | CC(=O)c1ccc2c(c1)c1cc(C(C)=O)ccc1n2CCOC(C)C [Compound S40] |  | > 20 µM |  | EC50 [1]: > 20 µM |
|  | CC(=O)c1ccc2c(c1)c1cc(C(C)=O)ccc1n2CCN1CC(N(C)C)C1 [Compound S41] |  | > 20 µM |  | EC50 [1]: > 20 µM |
|  | CC(=O)c1ccc2c(c1)c1cc(C(C)=O)ccc1n2CCNCCN(C)C [Compound S42] |  | > 20 µM |  | EC50 [1]: > 20 µM |
|  | CC(=O)c1ccc2c(c1)c1cc(C(C)=O)ccc1n2CCn1ccnc1 [Compound S43] |  | > 20 µM | > 20 µM | EC50 [1]: > 20 µM |
|  | CCC(C)(C)C(=O)O[C@H]1C[C@@H](C)C=C2C=C[C@H](C)[C@H](CC[C@@H]3C[C@@H](O)CC(=O)O3)[C@H]21 [Simvastatin, reference compound] | 6.9 ± 0.04 µM |  |  |  |

| Compound | EC50 [2, 5] | EC50 [3, 6] | EC50 [3, 7] | EC50 [2, 8] | other results |
| --- | --- | --- | --- | --- | --- |
| N=C(N)c1ccc(OCCCCCOc2ccc(C(=N)N)cc2)cc1 [Pentamidine, reference compound] | > 50 µM | 18.4 ± 1.47 µM |  |  | EC50 [1, 4]: 4.2 ± 0.08 µM |
